# Laboratory results taken from US11065232B2, “Dihydrotetrabenazine for the treatment of anxiety and psychoses” (ADEPTIO PHARMACEUTICALS LIMITED, priority 2017, dated 2021).
# Key:
# [1] = biological target: T1, alpha 2A (h) (antagonist radioligand) (Homo sapiens, UniProt P08913); experiment: Receptor protein binding studies, alpha 2A
# T1 sequence (P08913 1-465): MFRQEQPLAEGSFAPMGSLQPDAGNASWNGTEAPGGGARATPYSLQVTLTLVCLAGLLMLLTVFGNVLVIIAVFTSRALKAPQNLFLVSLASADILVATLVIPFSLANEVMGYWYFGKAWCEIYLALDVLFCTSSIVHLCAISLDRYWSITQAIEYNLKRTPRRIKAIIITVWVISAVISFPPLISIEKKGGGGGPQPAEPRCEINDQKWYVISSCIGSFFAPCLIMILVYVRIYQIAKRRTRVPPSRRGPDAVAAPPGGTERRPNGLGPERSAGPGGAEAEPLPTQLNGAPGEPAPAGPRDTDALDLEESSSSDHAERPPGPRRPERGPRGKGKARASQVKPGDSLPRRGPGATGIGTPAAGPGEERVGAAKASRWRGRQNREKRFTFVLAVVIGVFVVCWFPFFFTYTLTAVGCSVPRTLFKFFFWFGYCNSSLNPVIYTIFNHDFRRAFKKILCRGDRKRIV
# Description: (§1) The four 3,11b trans-dihydrotetrabenazine isomers (+)-α, (−)-α, (+)-β and (−)-β were subjected to specific binding assays to test their ability to bind to the receptors and transporter proteins described below. The results are set out in Table 1
# [2] = biological target: T2, alpha 2C (h) (antagonist radioligand) (Homo sapiens, UniProt P18825); experiment: Receptor protein binding studies, alpha 2C
# T2 sequence (P18825 1-462): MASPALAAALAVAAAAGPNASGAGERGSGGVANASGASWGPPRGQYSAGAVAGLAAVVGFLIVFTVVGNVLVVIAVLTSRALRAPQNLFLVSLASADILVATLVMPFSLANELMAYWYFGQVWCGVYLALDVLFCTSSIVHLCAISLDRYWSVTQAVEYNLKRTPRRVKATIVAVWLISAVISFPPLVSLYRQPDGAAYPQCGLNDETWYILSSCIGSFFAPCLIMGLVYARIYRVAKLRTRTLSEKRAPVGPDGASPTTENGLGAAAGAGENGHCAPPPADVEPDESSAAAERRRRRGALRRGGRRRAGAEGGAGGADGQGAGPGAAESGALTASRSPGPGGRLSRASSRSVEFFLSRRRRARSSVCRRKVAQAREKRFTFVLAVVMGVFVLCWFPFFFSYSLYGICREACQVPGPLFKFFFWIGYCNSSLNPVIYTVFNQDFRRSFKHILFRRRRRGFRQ
# Description: as §1
# [3] = biological target: T3, D4.4 (h) (antagonist radioligand) (Homo sapiens, UniProt P21917); experiment: Receptor protein binding studies, D4.4; conditions: read-out: % Inhibition of specific binding
# T3 sequence (P21917 1-419): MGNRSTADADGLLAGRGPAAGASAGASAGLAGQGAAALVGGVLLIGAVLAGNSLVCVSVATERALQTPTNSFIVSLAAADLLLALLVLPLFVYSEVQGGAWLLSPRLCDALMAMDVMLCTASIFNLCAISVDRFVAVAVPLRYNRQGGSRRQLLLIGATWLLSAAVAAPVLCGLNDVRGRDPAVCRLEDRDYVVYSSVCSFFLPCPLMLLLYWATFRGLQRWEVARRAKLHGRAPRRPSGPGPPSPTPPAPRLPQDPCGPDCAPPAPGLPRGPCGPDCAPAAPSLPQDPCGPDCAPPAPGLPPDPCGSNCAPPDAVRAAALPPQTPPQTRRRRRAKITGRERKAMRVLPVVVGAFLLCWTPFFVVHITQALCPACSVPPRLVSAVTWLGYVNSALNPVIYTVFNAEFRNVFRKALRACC
# Description: as §1
# [4] = system: I2 (antagonist radioligand); experiment: Receptor protein binding studies, I2
# Description: as §1
# [5] = biological target: T4, 5-HT1A(h) (agonist radioligand) (Homo sapiens, UniProt P08908); experiment: Receptor protein binding studies, 5-HT1A
# T4 sequence (P08908 1-422): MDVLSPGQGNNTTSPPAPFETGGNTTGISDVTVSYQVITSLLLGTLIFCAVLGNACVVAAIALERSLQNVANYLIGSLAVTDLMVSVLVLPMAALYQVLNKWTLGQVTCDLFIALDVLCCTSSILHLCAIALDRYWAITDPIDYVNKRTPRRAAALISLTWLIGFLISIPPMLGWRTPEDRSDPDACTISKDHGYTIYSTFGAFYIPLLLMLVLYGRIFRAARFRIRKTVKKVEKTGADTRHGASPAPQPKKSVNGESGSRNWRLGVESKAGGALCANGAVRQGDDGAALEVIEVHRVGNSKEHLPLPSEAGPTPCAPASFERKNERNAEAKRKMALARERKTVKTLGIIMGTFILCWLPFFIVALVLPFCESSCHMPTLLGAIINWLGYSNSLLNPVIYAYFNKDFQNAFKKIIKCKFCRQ
# Description: as §1
# [6] = biological target: 5-HT2B (h) (agonist radioligand) (Homo sapiens, UniProt P41595); experiment: Receptor protein binding studies, 5-HT2B
# Description: as §1
# [7] = biological target: hERG (membrane preparation) (antagonist radioligand) (Homo sapiens, UniProt Q12809); experiment: Receptor protein binding studies, hERG
# Description: as §1
# hERG (membrane preparation) (antagonist radioligand), sequence (Q12809 whole entry): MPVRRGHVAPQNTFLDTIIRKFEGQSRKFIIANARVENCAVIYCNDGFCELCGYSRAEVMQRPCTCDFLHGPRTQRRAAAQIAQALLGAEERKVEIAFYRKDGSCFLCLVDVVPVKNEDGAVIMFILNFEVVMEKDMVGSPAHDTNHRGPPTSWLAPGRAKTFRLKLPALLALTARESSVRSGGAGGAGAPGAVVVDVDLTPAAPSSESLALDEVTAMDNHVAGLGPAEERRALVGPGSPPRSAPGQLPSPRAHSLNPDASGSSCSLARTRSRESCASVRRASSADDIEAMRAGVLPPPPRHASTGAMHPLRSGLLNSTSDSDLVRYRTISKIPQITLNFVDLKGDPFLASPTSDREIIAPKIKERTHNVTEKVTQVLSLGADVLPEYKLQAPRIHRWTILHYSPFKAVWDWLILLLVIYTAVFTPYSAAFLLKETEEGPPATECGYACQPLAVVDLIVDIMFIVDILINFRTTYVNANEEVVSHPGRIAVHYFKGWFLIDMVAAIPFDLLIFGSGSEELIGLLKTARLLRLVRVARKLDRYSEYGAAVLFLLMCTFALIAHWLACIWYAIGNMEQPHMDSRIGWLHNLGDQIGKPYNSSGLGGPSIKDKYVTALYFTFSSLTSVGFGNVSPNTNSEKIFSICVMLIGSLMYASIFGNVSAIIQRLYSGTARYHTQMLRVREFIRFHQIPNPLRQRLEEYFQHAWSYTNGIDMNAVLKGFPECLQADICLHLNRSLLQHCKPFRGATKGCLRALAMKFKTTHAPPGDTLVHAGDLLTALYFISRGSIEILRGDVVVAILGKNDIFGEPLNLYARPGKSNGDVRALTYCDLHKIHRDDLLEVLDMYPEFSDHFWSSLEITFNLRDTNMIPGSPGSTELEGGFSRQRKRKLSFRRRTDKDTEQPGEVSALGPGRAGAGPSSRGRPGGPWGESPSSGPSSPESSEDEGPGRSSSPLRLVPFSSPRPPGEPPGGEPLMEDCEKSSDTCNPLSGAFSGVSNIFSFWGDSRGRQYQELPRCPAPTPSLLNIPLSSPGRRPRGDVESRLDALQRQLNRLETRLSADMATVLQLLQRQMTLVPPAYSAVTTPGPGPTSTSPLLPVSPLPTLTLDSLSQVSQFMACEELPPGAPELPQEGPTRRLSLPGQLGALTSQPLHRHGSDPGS
# 5-HT2B (h) (agonist radioligand), sequence (P41595 whole entry): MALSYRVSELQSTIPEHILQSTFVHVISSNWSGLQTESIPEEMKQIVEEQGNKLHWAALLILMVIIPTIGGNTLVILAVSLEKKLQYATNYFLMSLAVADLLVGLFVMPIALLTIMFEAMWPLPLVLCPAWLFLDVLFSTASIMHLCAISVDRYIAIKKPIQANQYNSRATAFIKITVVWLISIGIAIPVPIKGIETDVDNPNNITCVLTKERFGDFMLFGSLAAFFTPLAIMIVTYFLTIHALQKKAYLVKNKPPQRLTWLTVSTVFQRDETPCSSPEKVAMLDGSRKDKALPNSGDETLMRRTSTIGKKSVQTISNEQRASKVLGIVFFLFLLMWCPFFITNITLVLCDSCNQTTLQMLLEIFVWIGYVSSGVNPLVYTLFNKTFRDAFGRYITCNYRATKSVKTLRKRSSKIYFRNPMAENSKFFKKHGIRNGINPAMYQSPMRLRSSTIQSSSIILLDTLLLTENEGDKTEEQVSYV
structure (smiles),measurement,setting,value
"COc1cc2c(cc1OC)[C@@H]1C[C@@H](O)[C@@H](CC(C)C)CN1CC2 [(−)-Beta, (2S,3R,11bR)-3-isobutyl-9,10-dimethoxy-1,3,4,6,7,11b-hexahydro-2H-pyrido[2,1,a]isoquinolin-2-ol]",activity at the alpha 2A receptor (in words),[1],potent antagonists
same,activity at the alpha 2C receptor (in words),[2],potent antagonists
same,inhibition at 10 µM,"[3]; CONC 1.0E−05 (unit inferred), 10 μM",99%
same,inhibition at 1 µM,"[3]; CONC 1.0E−06 (unit inferred), 1 μM",87%
same,% Inhibition of specific binding,[4]; CONC 1.0E−05 (unit not given),37%
same,% Inhibition of specific binding,[4]; CONC 1.0E−06 (unit not given),11%
same,activity at the 5-HT 1A receptor (in words),[5],potent agonists
same,activity at the 5-HT 2B receptor (in words),[6],potent agonists
same,% Inhibition of specific binding,[7]; CONC 1.0E−05 (unit not given),64%
same,% Inhibition of specific binding,[7]; CONC 1.0E−06 (unit not given),−1%
